From ChEMBL document CHEMBL3507680, “University of Dundee, Gates Library screen for HepG2 cell viability”

Experiment: Human HepG2 cell viability assay in 384 well format
Assay type: toxicity, cell-based
Design: dose 125 nL, time 70.5 hour; concentration not given beside the values
Conditions: HepG2 cells, read-out: Inhibition

Row | Compound | cytotoxicity at 70.5 h [%]
1 | CCn1cnnc1Cc1nc2c([nH]1)CC(c1ccc(Cl)cc1)CNC2=O (stereo not drawn) | 6.53
2 | CN1CCC(N(CCc2ccccc2)C(=O)c2ccc(C#N)nc2)CC1 | -3.27
3 | Cn1cc(CNS(=O)(=O)c2cc(F)ccc2F)cn1 | -6.49
4 | Cc1ccc(C(=O)Nc2cn[nH]c2)cc1C | -1.12
5 | CN1CCCCC1C(=O)N1CCN(c2ccccc2C#N)CC1 (stereo not drawn) | -2.64
6 | CC1CN(C(=O)Nc2cc(C(F)(F)F)c[nH]c2=O)CCO1 (stereo not drawn) | -8.88
7 | Cc1[nH]ccc1C(=O)N(C)C1CC(=O)N(Cc2ccccc2)C1=O (stereo not drawn) | -2.82
8 | CN(C)S(=O)(=O)N1CC[C@]2(C[C@H](Oc3cccnc3)CO2)C1 | -5.74
9 | O=C1NC[C@@]2(C(=O)O)CN(Cc3cccc(OC4CCCC4)c3)C[C@@H]12 | -3
10 | CS(=O)(=O)N1CCOCC2(CN(Cc3ccsc3)CCO2)C1 (stereo not drawn) | 0.00349
11 | CC(C)Cc1nc(CN(C)CCOc2ccccc2F)no1 | 12.5
12 | COCc1nn(C)c2c1CCN(Cc1cnn(C)c1)C2 | -5.93
13 | CC(C)[C@@H]1CN(Cc2ccccn2)C[C@H]1NS(=O)(=O)N(C)C | -0.239
14 | O=C(c1ccc2nncn2c1)N1CCSC2(CCCCC2)C1 | 11.5
15 | O=C(NCc1cc[nH]n1)NCC(O)c1ccc(F)cc1 (stereo not drawn) | 6.85
16 | O=C(N[C@@H]1CN(Cc2ccc3c(c2)OCO3)[C@@H]2CCCO[C@@H]21)C1CC1 | 8.84
17 | CCc1n[nH]c(C2CN(Cc3nnc(C4CC4)o3)CCO2)n1 (stereo not drawn) | -1.31
18 | O=C(c1cn(CC(=O)N2CCCC2)c2ccccc12)C1CC1 | -2.27
19 | COC(=O)c1cc2c(=O)n(C3CC3)ccc2nc1C | 2.32
20 | CNC(=O)Cc1ccc(-n2ccnc2-c2cccc(C(=O)O)c2)cc1 | 17.5
21 | CCc1nnc2n1CC(CNCC1CCCC1)CC2 (stereo not drawn) | -1.75
22 | CN1CC(=O)N(c2ccsc2)CC12CCN(C(=O)N1CCCC1)C2 (stereo not drawn) | -7.42
23 | CCC1CN(C(=O)c2ccc(=O)[nH]c2)CCC(=O)N1Cc1ccccc1 (stereo not drawn) | -2.4

Row | Compound | cytotoxicity at 70.5 h [%]
24 | CC1CC(NS(=O)(=O)c2ccc(C(F)(F)F)nc2)C1 (stereo not drawn) | 26.5
25 | CC1(C)CCC(CC(=O)O)c2ccccc21 (stereo not drawn) | -3.28
26 | CCc1cnc(CN2CCC(N(C)Cc3noc(C4CC4)n3)C2)o1 (stereo not drawn) | 23.8
27 | O=C(CO)N1CC[C@@H](N2CCN(c3ccccc3F)CC2)[C@H](O)C1 | 6.39
28 | Cc1nccn1-c1cc(CNC(=O)CC2CCCO2)ccn1 (stereo not drawn) | 16.3
29 | Cc1ccc(CNC(=O)Nc2nnc(C3CC3)s2)n1C | -0.672
30 | O=S(=O)(CCO)CCc1ccccc1Cl | -9.35
31 | Cc1ccc(CN2C[C@@H]3COC[C@@H](NS(C)(=O)=O)[C@@H]3C2)o1 | -18.3
32 | CCn1nc(C)c2ncnc(N3CCCC(C)C3)c21 (stereo not drawn) | 8.26
33 | O=C(CCCc1ccc(Cl)cc1)N1CCC(c2nnc[nH]2)CC1 | -2.6
34 | O=C(c1cccnc1-c1ccoc1)N1C[C@H]2CC[C@@H]1C2 | -10.4
35 | Cc1ccc(C(=O)NCCS(=O)(=O)N2CCSCC2)o1 | 3.19
36 | CCOC1COC2(CCN(c3ccccn3)CC2)C1 (stereo not drawn) | -0.266
37 | CN(C(=O)c1ccc(Cl)c(S(C)(=O)=O)c1)c1ccccc1 | 0.806
38 | CC(C)c1nccn1C1CCCN(C(=O)c2ccnc(N(C)C)c2)C1 (stereo not drawn) | -2.47
39 | Cc1cc(C(=O)Nc2ccn(CCCN3CCCC3)n2)no1 | 1.38
40 | CC(C(=O)N(C)Cc1ccco1)n1cncn1 (stereo not drawn) | 1.02
41 | Cc1nccn1CCC(=O)N1CCCN(c2ccccc2)CC1 | -6.92
42 | CNc1cc(C)nc(-c2cc(NC3CCNCC3)nc3[nH]ccc23)n1 | -4.41
43 | Cc1cnc(CN(C)Cc2cc3c(cc2OC(F)F)OCO3)o1 | 0.766
44 | CCn1c(C2CCN(C(=O)c3cc(CC(C)C)on3)CC2)nn(C)c1=O | 6.02
45 | Cc1cc(CN2CCc3nn(C)c(=O)cc3C2)no1 | -2.94
46 | COc1cccc(CC2CN(C3CCCCC3)CCO2)c1 (stereo not drawn) | 25.1

Row | Compound | cytotoxicity at 70.5 h [%]
47 | O=S(=O)(NCc1ccccc1)N1CCN(c2ncccn2)CC1 | -18.4
48 | CCN(CC)C(=O)c1cccc(Cn2nc(C)cc2C)c1 | -8.82
49 | COc1cc(CN2CCC(NC(=O)c3cccn3C)C2)cc(OC)c1 (stereo not drawn) | -7.95
50 | O=S1(=O)NCC2(CCN(c3ncccn3)CC2)COc2ccccc21 | 47.5
51 | NC(=O)C1CCN(C(=O)c2cc(S(=O)(=O)N3CCCCC3)cs2)CC1 | 14.2
52 | CCn1cc(NC(=O)NCC(O)CN2CCCCC2)cn1 (stereo not drawn) | -14.9
53 | O=C1CC[C@H]2[C@@H](CCN2Cc2ccco2)N1 | -8.59
54 | COc1ccccc1CN1CCCCC1c1n[nH]cc1-c1cc(C)no1 (stereo not drawn) | -6.18
55 | CN1CCN(S(=O)(=O)c2cncc(F)c2)c2ccccc2C1 | -11.8
56 | O=C(CCn1cccn1)NCC(c1cccs1)N1CCCC1 (stereo not drawn) | -5.3
57 | CCc1ncc(C(=O)N(CC)CCOC)cn1 | -1.19
58 | Cn1ccnc1CNC(=O)N(CCCO)C1CCc2ccccc21 (stereo not drawn) | -4.97
59 | CC(C)c1csc(C2CCCN(C(=O)c3ccc(=O)n(C)n3)C2)n1 (stereo not drawn) | 1.7
60 | CC(C)CN(Cc1ccc(C(F)(F)F)nc1)Cc1cnn(C)c1 | -3.14
61 | CC(C)n1ncc2c1NC(=O)CC21C(=O)Nc2c(Cl)ccc(Cl)c21 (stereo not drawn) | -12.2
62 | Cc1cccc(CN2C(=O)CO[C@@H]3CN(Cc4cnn(C)c4)C[C@H]32)c1 | 4.73
63 | Cc1ccc2nc(-c3cnc(N)nc3)cc(C(=O)N(C)C)c2c1 | 1.63
64 | CCn1nc(C)c2nn(CC(=O)NC3CCSCC3)cc21 | 6.6
65 | CC(C)N(CC(N)=O)C(=O)CCC(=O)c1ccc(F)cc1F | -6.11
66 | COc1cc(C(=O)NCCc2ccc(Cl)cc2)on1 | 0.265
67 | Cc1cccc2cc(C(=O)N3CCN(S(=O)(=O)N(C)C)CC3)n(C)c12 | 1.01
68 | Cc1cccc(C)c1OCC(=O)N1CCOCC1c1ncon1 (stereo not drawn) | -2.55
69 | CCc1ncc2c(n1)CN(c1nc(C)ccc1C(=O)O)C2 | -10.8

Row | Compound | cytotoxicity at 70.5 h [%]
70 | CC(=O)N1CCc2c(nc(N(C)C)nc2N(C)CCCC2CCCO2)C1 (stereo not drawn) | 10.7
71 | CCOCC1CN(CCOCc2ccccc2)Cc2c1cnn2C (stereo not drawn) | -3.18
72 | CCc1ncncc1C(=O)NCCNS(=O)(=O)c1ccc(C)cc1 | -1.77
73 | Cn1c2c(c(=O)c3ccccc31)CCC(C)(C)O2 | -9.34
74 | Cc1cccc(CNCCOc2ccc(S(C)(=O)=O)cc2)c1 | -0.853
75 | CN(C)c1nc2c(c(N3CCC4(CC3)CNC(=O)C4)n1)CCCC2 | -3.91
76 | Cc1nc(C)c(C(=O)N2CCc3c(C)cccc32)o1 | -5.23
77 | Cc1noc(C)c1CN1CCc2ncnc(-c3ccccc3)c2CC1 | 18.5
78 | CNS(=O)(=O)CC(=O)N1CCCc2cc(Br)ccc21 | -88.8
79 | CCOc1ccc(N2CCCN=C2NC(=O)c2cccc(C)c2)cc1 | -6.22
80 | CC(=O)N(C)C1CCN(C(=O)NCC(C)Cc2cccs2)CC1 (stereo not drawn) | -2.57
81 | CCOc1cc(NC(=O)C2CC(=O)N(c3cccc(OC)c3)C2)ncn1 (stereo not drawn) | -2.94
82 | Cc1cc(C)n(CC2CN(Cc3cscn3)CCO2)n1 (stereo not drawn) | -4.76
83 | O=C(C[C@@H]1COC[C@H]2CN(Cc3ccncc3)C[C@@H]12)N1CCOCC1 | -13.2
84 | COCCC(=O)Nc1nc2c(OC)cc(F)cc2s1 | -4.65
85 | COCCOc1ccc(NC(=O)N2CCOC(C(N)=O)C2)cc1F (stereo not drawn) | 25.8
86 | CN(C)c1ccc(C(=O)Nc2ccn(CCc3ccncc3)n2)cc1 | 15
87 | O=S(=O)(C1CC1)N1CC[C@]2(C[C@@H](Oc3ncccc3F)CO2)C1 | 6.64
88 | CNc1nc2c(s1)C(=O)CN(C(=O)NCc1ccccc1)C2 | -9.93
89 | COCCN(C)CC(=O)N1C[C@@H](NC(C)=O)[C@H](c2ccc(OC)cc2)C1 | -17.6
90 | Cc1cn2c(CN(C)C(=O)c3cccnc3O)c(C)nc2s1 | -4.29
91 | COc1cccc(CN2CCC(c3nnc(-c4cnc(C)cn4)o3)C2)c1 (stereo not drawn) | -13.5
92 | O=C(C1CCC1)N1CCN(Cc2ccsc2)[C@H]2CS(=O)(=O)C[C@H]21 | -0.678

Row | Compound | cytotoxicity at 70.5 h [%]
93 | COc1cc(CN(C)C(=O)NCc2cccnc2OC)ccc1SC | -0.299
94 | CCn1c(CN2CCCC2)nnc1C1CCN(Cc2ccc(C)o2)CC1 | -5.38
95 | CC(Cn1cccn1)NC(=O)N1CCC(NS(C)(=O)=O)CC1 (stereo not drawn) | -17.2
96 | COc1c(CNC2CCCOc3ccccc32)c(C)nn1C (stereo not drawn) | -9.23
97 | CCOCC1CN(C(=O)c2cccs2)Cc2cnn(CC3CC3)c21 (stereo not drawn) | -6.77
98 | CNC(=O)CCc1cccc(C2CCCN(c3cc(C)ncn3)C2)n1 (stereo not drawn) | -2.33
99 | COCCNC(=O)NC1(c2nc(C)no2)CCCCC1 | -0.559
100 | CN(C)S(=O)(=O)N1CCC(c2c(C(N)=O)sc3ccccc23)C1 (stereo not drawn) | -3.67
101 | COC(=O)CC(c1ccc(OC)c(OC)c1)c1oc(C)cc(=O)c1O (stereo not drawn) | 5.4
102 | NC(=O)CN1CCC(C(=O)NCCc2nc(-c3ccccc3)cs2)CC1 | -3.75
103 | Cc1ccc(OCCC(=O)N2CCOCC2c2ncon2)cc1C (stereo not drawn) | -7.26
104 | COc1ccc(CNC(=O)NC2CCC(O)CC2)c(C(F)(F)F)c1 (stereo not drawn) | -4.62
105 | COc1ccc(C(C)N(C)Cc2nc3c(cnn3C)c(=O)[nH]2)cc1 (stereo not drawn) | -8.42
106 | OC1(CNC2CCN(c3ccccn3)CC2)CCc2ccccc21 (stereo not drawn) | -6.83
107 | CN(Cc1nc2ccsc2c(=O)[nH]1)C[C@@H]1CCCN2CCCC[C@H]12 | 14.5
108 | CN(C)C(=O)c1n[nH]c2c1CCN(Cc1nccs1)C2 | -4.93
109 | Cc1cc(CN2CCC(N(C)Cc3noc(C4CC4)n3)C2)no1 (stereo not drawn) | 13
110 | COc1cc(CNC(=O)Nc2nnc(C(C)C)s2)ccc1O | -10.5
111 | Cc1cc(CN2CCC(C3Nc4ccccc4S(=O)(=O)N3)CC2)oc1C (stereo not drawn) | -3.27
112 | Cc1cc(C)n(NC(=O)c2ccccc2F)c(=O)c1 | 15.6
113 | CCc1ccc(CN2CCCC(CO)(CCOC)C2)cc1 (stereo not drawn) | -8.83
